{"source": "paper PMC11211441", "about": "“Distributable, metabolic PET reporting of tuberculosis” (Nature Communications, 2024)", "key": {"[1]": {"test": "Human microsomal stability assay", "conditions": "human liver microsomes, 3 µM, 80 min", "description": "Microsomal stability assay was carried out as described previously. In brief, 10 x reduced nicotinamide adenine dinucleotide phosphate (NADPH)-regenerating system was freshly prepared by dissolving 37.2 mg glucose-6-phosphate (Sigma) in 1 mL of 100 mM potassium phosphate buffer, 39.8 mg nicotinamide adenine dinucleotide phosphate (NADP, Sigma) in 1 mL of potassium phosphate buffer, 11.5 U glucose-6-phosphate dehydrogenase (Thermo) in 1 mL of potassium phosphate buffer and 26.8 mg MgCl2.6H2O (Sigma) in 1 mL of distilled water. All these solutions were combined and kept on ice. […] After 5 min, 18 µL of NADPH-regenerating system was added to initiate reaction. Immediately after adding the NADPH regenerating system, 50 µL, 0 min time point sample was taken and quenched with equal volume of ice-cold methanol. Similarly further samples were taken at 10 min, 30 min, 60 min, 90 min and 120 min. Samples were centrifuged at 10,000 g at 4 °C for 10 min. […] After incubating the reaction mix at 37 °C for 5 min, 36 µL of NADPH regenerating system was added to initiate the reaction. 50 µL samples were taken at 0 min, 2.5 min, 5 min, 10 min, 20 min, 40 min and 80 min and reactions were quenched by adding equal amount of ice-cold acetonitrile and kept on ice."}, "[2]": {"system": "mammalian (porcine) trehalase", "test": "Trehalase degradation assay", "format": "in vitro ADME", "conditions": "0.3 units/mL trehalase, 10 mM substrate", "description": "The metabolic stabilities of the remaining three analogs, [^18F]FDT, 4-epi-[^18F]FDT and 6-[^18F]FDT were tested. Although, human trehalose-degrading trehalase activity is low and restricted primarily to the brush-border of the kidney where it is thought to be GPI-anchored[28],[32], it can be elevated in some diseases, therefore we also tested degradation of the analogs in vitro using high concentrations of mammalian (porcine) trehalase (0.3 units/mL, 10 mM substrate, Fig. S5). […]\nFigure S5. Trehalase Assays.\nSubstrates were prepared to a final concentration of 10 mM in 0.05 M citric acid, pH 5.7 including trehalase stock solution (0.3 units/mL). The reaction mixture was incubated at 37 °C for 60 minutes, and then quenched with an equal volume of 0.1 M Tris, pH 7.5. Released glucose was measured with glucose assay kit (see Methods)."}, "[3]": {"test": "[19F]FDT in vivo stability in mice (plasma/urine LC-MS, 19F NMR)", "conditions": "mice (n = 5), LC-MS and 19F-NMR", "description": "For initial in vivo study, six white mice, CD1, male, weighing between 22–26 grams, were used. Two concentrations of [^19F]FDT (500 μM and 50 μM, final concentration in the blood) were injected into the mice, through the tail vein injection. Prior to injection, each mouse was pre-bled (100 μL) and control samples were obtained. […] Samples were spun at 13000 rpm (15871 x g) for 10 min and the supernatant (plasma) was used for further analysis. 200 μL of plasma sample was transferred into fresh 1.5 mL Eppendorf tube and diluted with equal amount of acetonitrile to precipitate out blood plasma protein and other macromolecules. Samples were further spun at 13000 rpm (15871 x g) for 5 min.\nIn order to determine [^19F]FDT metabolism in vivo, we assessed concentration vs time in two mammalian species: common marmosets and C57BL/6 mice. For marmosets weighing between 290.3–340.3 g, 20 mg of sterile-filtered FDT in PBS was injected IV (n = 3) and ~200 μL blood samples were taken from the femoral vein at 0 min, 5 min, 30 min, 60 min, 90 min and 180 min post injection. […]\n(§1) A, B) 20 mg [19F]FDT was injected into marmosets (A, n=3 biological replicates, each measured in duplicate) and 5 mg FDT injected into mice (B, n=5 biological replicates, each measured in triplicate). […]\n[19F]FDG was detected, consistent with the only low levels of metabolism seen with [18F]FDT in rabbits (see Figure S3G). […]"}, "[4]": {"test": "[19F]FDT clearance and in vivo stability in marmosets (plasma LC-MS, 19F NMR)", "design": "species or system common marmosets", "conditions": "marmosets (n = 3), LC-MS and 19F-NMR", "description": "In order to determine [^19F]FDT metabolism in vivo, we assessed concentration vs time in two mammalian species: common marmosets and C57BL/6 mice. For marmosets weighing between 290.3–340.3 g, 20 mg of sterile-filtered FDT in PBS was injected IV (n = 3) and ~200 μL blood samples were taken from the femoral vein at 0 min, 5 min, 30 min, 60 min, 90 min and 180 min post injection. Samples were spun (4000 rcf for 10 mins at room temp) to separate red cell mass from plasma. Plasma portion was separated and stored at −80 °C for further analysis. Similarly, mice weighing from 18.7–20.5 g were injected (n = 5) with 5 mg of filter-sterilized FDT solution dissolved in PBS solution, pH 7.4. Mandibular blood samples were taken at 2 min, 15 min, 30 min and 45 min post injection. For the last sample in each mouse, the animal was bled out to get maximum sample for NMR analysis. Final urine samples were collected in 3 out of 5 mice through free catch. Blood samples were centrifuged (6500 rcf for 4 mins at room temp) to separate red cell mass from plasma, and plasma was separated and stored at −80 °C prior to analyzes.\nPlasma samples from −80 °C were thawed on ice and mixed with 80% acetonitrile to precipitate plasma proteins and other biomolecules. Samples were centrifuged at 10,000 g, 4 °C for 10 min.\nFigure S37. [19F]FDT Clearance and In Vivo Stability in Non-human Primates […]\nas §1\nmarmosets (A) and mice (B).\n[19F]FDG was detected, consistent with the only low levels of metabolism seen with [18F]FDT in rabbits (see Figure S3G). C-F) We further analyzed the potential degradation of FDT into FDG by 19F NMR spectroscopy in marmoset plasma (C) sample from 5 min time point, mouse plasma (D) sample from 30 min time point and mouse urine samples from 30 min (E) and 45 min (F) time points, respectively. In all these samples only [19F]FDT was observed (d -201.2). The data points are average values from three replicates with error bars ± SD.\n(1 picture or pasted object on this page, not shown here)"}, "[5]": {"test": "Single and repeat iv dose toxicity study in rats", "format": "in vivo, Sprague Dawley rats", "description": "For toxicity studies, 2 g of [^19F]-FDT was synthesized and tested for quality control as described above and in Figs.39 and shipped to a contract research organization. Toxicity studies were conducted by SRI International, Biosciences Division, Menlo Park, CA, USA in rats and dogs. The experimental design is described in Tables S10, S11, respectively."}}, "data": [{"smiles": "OC[C@H]1O[C@H](O[C@H]2O[C@H](CO)[C@@H](O)[C@H](O)[C@H]2F)[C@H](O)[C@@H](O)[C@@H]1O", "note": "[[^19F]FDT]", "values": [{"measurement": "% remaining", "setting": "[1]", "result": "> 50", "unit": "%"}, {"measurement": "degradation by trehalase", "setting": "[2]", "result": "little or no degradation"}, {"measurement": "degradation by trehalase (Figure S5, released glucose)", "setting": "[2]; pH 5.7, 37 °C, 60 minutes", "result": 0}, {"measurement": "degradation in plasma / in vivo", "setting": "[3]", "result": "no detectable degradation"}, {"measurement": "degradation in plasma / in vivo", "setting": "[3]; listed as [19F]FDT", "result": "no degradation"}, {"measurement": "degradation in plasma / in vivo", "setting": "[4]", "result": "no detectable degradation"}, {"measurement": "degradation in plasma / in vivo", "setting": "[4]; listed as [19F]FDT", "result": "no degradation"}, {"measurement": "maximum tolerated dose (MTD)", "setting": "[5]; Sprague Dawley rats, IV", "result": "not reached"}, {"measurement": "adverse findings in any parameters measured", "setting": "[5]; rats, 100 x or 1000 x expected human dose iv", "result": "no adverse findings"}]}]}
